From patent US10344025B2, “GLS1 inhibitors for treating disease” (Board of Regents, The University of Texas System, priority 2014, dated 2019) come the findings set out here.

In test [1] the target is purified recombinant human GAC (GLS1) (Homo sapiens (Human), UniProt O94925). Kind of test: GLS1 Enzymatic Activity Assay (dual-coupled enzymatic assay, resorufin/Amplex UltraRed readout).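 Also: glutamate from GAC coupled via glutamate oxidase and peroxidase to resorufin, read as fluorescence (ex 530, em 590 nm) kinetically or at 20 min, four-parameter logistic IC50 fit.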 Format: biochemical.
Another test has as its system A549 cells. Kind of test: Proliferation Assay (A549 viability, Cell Titer Fluor, 72 hours). In kind it is cell-based. Particulars: Homo sapiens, A549, 72 h. The method, boiled down:
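A549 cells seeded at 1000 cells/well, rested 24 h, then exposed to compound in 0.5% DMSO for 72 h at 37 °C. Viability read by Cell Titer Fluor fluorescence; IC50 from four-parameter logistic fit.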

Sequence of purified recombinant human GAC (GLS1) (O94925 other isoform, or with tags, fused parts or gaps): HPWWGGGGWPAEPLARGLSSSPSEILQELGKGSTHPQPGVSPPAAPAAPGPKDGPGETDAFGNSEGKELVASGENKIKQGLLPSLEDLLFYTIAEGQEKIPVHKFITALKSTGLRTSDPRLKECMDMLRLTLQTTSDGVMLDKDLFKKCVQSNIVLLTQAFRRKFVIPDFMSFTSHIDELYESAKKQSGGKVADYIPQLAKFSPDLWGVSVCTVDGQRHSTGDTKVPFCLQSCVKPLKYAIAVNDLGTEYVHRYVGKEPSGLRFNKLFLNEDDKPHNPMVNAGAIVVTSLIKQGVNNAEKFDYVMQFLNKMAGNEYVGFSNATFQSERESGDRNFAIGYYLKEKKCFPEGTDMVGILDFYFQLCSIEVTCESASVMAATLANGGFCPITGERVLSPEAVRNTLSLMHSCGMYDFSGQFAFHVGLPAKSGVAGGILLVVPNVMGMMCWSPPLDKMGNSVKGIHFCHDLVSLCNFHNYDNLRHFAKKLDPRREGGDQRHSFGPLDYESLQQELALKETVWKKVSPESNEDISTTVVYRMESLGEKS

One may read the IC50 as the point on the concentration scale where inhibition reaches its midpoint. A word on the EC50: it is the concentration at which the effect is half-maximal. A high value points to lower potency in that assay. For `O=C(NCc1cc(OC(F)(F)F)ccc1F)c1cn(CCC(F)Cn2cc(C(=O)NCc3ccc(C(F)(F)F)nc3)nn2)nn1` (stereo not shown) [Example 424, 1-{2-fluoro-4-[4-({[2-fluoro-5-(trifluoromethoxy)phenyl]methyl}carbamoyl)-1H-1,2,3-triazol-1-yl]butyl}-N-{[6-(trifluoromethyl)pyridin-3-yl]methyl}-1H-1,2,3-triazole-4-carboxamide], in test [1], the IC50 was below 100 nM. This molecule also yielded an EC50 in the test on A549 cells below 100 nM.
Consider `O=C(NCc1cc(OC(F)(F)F)ccc1F)c1cn(CCC(F)Cn2cc(C(=O)NCc3cccc(C(F)(F)F)n3)nn2)nn1` (stereo not shown) [Example 425, 1-{2-fluoro-4-[4-({[2-fluoro-5-(trifluoromethoxy)phenyl]methyl}carbamoyl)-1H-1,2,3-triazol-1-yl]butyl}-N-{[6-(trifluoromethyl)pyridin-2-yl]methyl}-1H-1,2,3-triazole-4-carboxamide], for which the IC50 in test [1] was below 100 nM. The molecule also registered an EC50 in the test with A549 cells below 100 nM.
In the case of `O=C(NCc1cc(OC(F)(F)F)ccc1F)c1cn(CCC(F)Cn2cc(C(=O)NCc3cc(C(F)(F)F)ccn3)nn2)nn1` (stereo not shown) [Example 426, 1-{2-fluoro-4-[4-({[2-fluoro-5-(trifluoromethoxy)phenyl]methyl}carbamoyl)-1H-1,2,3-triazol-1-yl]butyl}-N-{[4-(trifluoromethyl)pyridin-2-yl]methyl}-1H-1,2,3-triazole-4-carboxamide], the IC50 in test [1] was below 100 nM. This molecule showed an EC50 in the test on A549 cells below 100 nM.
Regarding `O=C(NCc1cc(OC(F)(F)F)ccc1F)c1cn(CCC(F)Cn2cc(C(=O)NCc3ncccc3F)nn2)nn1` (stereo not shown) [Example 427, 1-{2-fluoro-4-[4-({[2-fluoro-5-(trifluoromethoxy)phenyl]methyl}carbamoyl)-1H-1,2,3-triazol-1-yl]butyl}-N-[(3-fluoropyridin-2-yl)methyl]-1H-1,2,3-triazole-4-carboxamide], the IC50 in test [1] was below 100 nM. Further, the EC50 in the test on A549 cells was below 100 nM.
With `O=C(NCc1cccc(OC(F)(F)F)c1)c1cn(CCC(F)Cn2cc(C(=O)NCc3cc(C(F)(F)F)ccn3)nn2)nn1` (stereo not shown) [Example 428, 1-{2-fluoro-4-[4-({[3-(trifluoromethoxy)phenyl]methyl}carbamoyl)-1H-1,2,3-triazol-1-yl]butyl}-N-{[4-(trifluoromethyl)pyridin-2-yl]methyl}-1H-1,2,3-triazole-4-carboxamide], the IC50 in test [1] is below 100 nM. Moreover, the EC50 in the test on A549 cells is below 100 nM.
On to `O=C(NCc1cccc(OC(F)(F)F)c1)c1cn(CCC(F)Cn2cc(C(=O)NCc3ncccc3F)nn2)nn1` (stereo not shown) [Example 429, 1-{2-fluoro-4-[4-({[3-(trifluoromethoxy)phenyl]methyl}carbamoyl)-1H-1,2,3-triazol-1-yl]butyl}-N-[(3-fluoropyridin-2-yl)methyl]-1H-1,2,3-triazole-4-carboxamide], for which the IC50 in test [1] was below 100 nM. In addition, the EC50 in the test on A549 cells fell in the range of 100 to 500 nM.
With `Cc1ccc(CNC(=O)c2cn(CC(F)CCn3cc(C(=O)NCc4cccc(OC(F)(F)F)c4)nn3)nn2)cn1` (stereo not shown) [Example 430, 1-{2-fluoro-4-[4-({[3-(trifluoromethoxy)phenyl]methyl}carbamoyl)-1H-1,2,3-triazol-1-yl]butyl}-N-[(6-methylpyridin-3-yl)methyl]-1H-1,2,3-triazole-4-carboxamide], the IC50 in test [1] was below 100 nM. Besides, the EC50 in the test with A549 cells is below 100 nM.
Regarding `O=C(NCc1cccc(OC(F)(F)F)c1)c1cn(CCC(F)Cn2cc(C(=O)NCc3ccc(C(F)(F)F)cn3)nn2)nn1` (stereo not shown) [Example 431, 1-{2-fluoro-4-[4-({[3-(trifluoromethoxy)phenyl]methyl}carbamoyl)-1H-1,2,3-triazol-1-yl]butyl}-N-{[5-(trifluoromethyl)pyridin-2-yl]methyl}-1H-1,2,3-triazole-4-carboxamide], the IC50 in test [1] was below 100 nM. Also, in the test on A549 cells, the EC50 was below 100 nM.
